“Also recorded” adds a separate entry of the source. Like-named read-outs stand apart in the source and are kept apart here.
Legend:
mice = test: Writhing Assay (PBQ-induced writhing, analgesic activity); assay type: in vivo, mouse (Charles River male albino); details: for rank order of potency in the Writhing Assay: more potent compounds of the invention
Text: The Writhing Assay is one of the most widely-used experimental procedures for measuring the analgesic activity of different narcotic and nonnarcotic analgesic agents, and involves the continuous, chemically-induced pain of visceral origin to an animal, such as a mouse or rat. [Gyires et al., Arch. int. Pharmacodyn, 267, 131-140 (1984); C. Vander Wende et al., Fed. Proc., 15, 494 (1956); Koster et al., Fed. Proc., 18, 412 (1959); and Witken et al., J. Pharmacol. exp. Ther., 133, 400-408 (1961).] Chemicals which may be used to induce this pain include phenylbenzoquinone (PBQ) and acetic acid. As a result of the chemical irritation to the animal, a characteristic stretching and writhing of the animal (dorsiflexion of the animal's back, extension of its hindlimbs and the strong contraction of its abdominal musculature) will generally occur. […] Drugs which reduce the number of writhes of the animal appear to restore the normal nociceptive threshold of the animal.
Charles River male albino mice, weighing 20 to 30 grams were used in this assay.
Thirty minutes after subcutaneous or intragastric administration to ten mice of either 10 mg or 30 mg per kilogram of body weight of a compound of the present invention ("test compound"), […] of body weight of a 0.025% w/v solution of PBQ was injected intraperitoneally into each mouse. Ten mice which were given saline in place of a test compound of the invention were used as a control group.
Five minutes later, each mouse was individually placed into a glass beaker for observation, and the number of writhes occurring during the following ten-minute period was counted.
A test compound was considered to have produced analgesia in a mouse if, in accordance with the conditions set forth above, and under the test criteria employed for this assay, after the administration of 10 or 30 mg per kilogram of body weight of a compound of the present invention to the mouse, the number of writhes elicited by a mouse injected with PBQ was equal to, or less than, one-half the median number of writhes recorded for the saline-treated control group of mice that day, as described by Taber in "Predictive Value of Analgesic Assays in Mice and Rats," Advances in Biochemical Psychopharmacology, 8, 191 (1974).
The results for the particular compounds of the present invention analyzed in this assay, and discussed in the examples identified below which correspond thereto, are presented in Table I below.
The standard initial screening doses of a test compound employed in this assay were 10 and/or […] of body weight for both routes of administration. If these initial screening doses of the test compound produced analgesia in seven of ten mice, then the effect of additional doses of the test compound on the writhing response was evaluated, and then the ED50 dose was generally calculated. (The slopes of the dose-response curves for all test compounds analyzed were compared as described by Tallarida and Murray, Manual of Pharmacologic Calculations, Page 11 (Springer Verlag, N.Y., 1981)).

[1] = target: T1, prostaglandin E2-induced contractions of segments of guinea pig ileum (Cavia porcellus, UniProt A0A286XHJ6); test: Prostaglandin (PGE) Antagonism Assay in guinea pig ileum; parameters: key to PGE antagonism in guinea pig ileum, activity: Active: A concentration of test compound was determined to be "active" if it produced a dose ratio significantly greater than that obtained in a series of blank treatments; details: for Kb: Schild plot, guinea pig ileum, 37° C., read-out: PGE antagonism in guinea pig ileum (pA2) (converted); for PGE antagonism in guinea pig ileum, activity: initial concentration of test compound
T1 construct: The ileums were then quickly removed from the guinea pigs; from tissue; host or cells: guinea pig ileum segments (male albino guinea pigs)
T1 sequence (A0A286XHJ6 1-405): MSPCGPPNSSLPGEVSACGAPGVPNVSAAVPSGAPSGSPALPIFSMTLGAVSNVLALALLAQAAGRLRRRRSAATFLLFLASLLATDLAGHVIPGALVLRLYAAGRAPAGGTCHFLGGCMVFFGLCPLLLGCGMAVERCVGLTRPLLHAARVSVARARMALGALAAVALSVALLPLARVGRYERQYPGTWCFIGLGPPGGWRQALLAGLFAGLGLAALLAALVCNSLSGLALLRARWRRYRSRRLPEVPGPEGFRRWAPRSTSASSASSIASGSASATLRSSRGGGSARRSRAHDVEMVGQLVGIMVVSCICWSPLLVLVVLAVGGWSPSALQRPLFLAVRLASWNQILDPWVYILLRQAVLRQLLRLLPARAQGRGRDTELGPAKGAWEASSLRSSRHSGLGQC
Procedure: In order to determine the effectiveness of several of the compounds of the present invention ("test compounds") as prostaglandin E2 antagonists,a prostaglandin antagonism assay was conducted, as described below, to determine the ability of these compounds to inhibit prostaglandin E2 -induced contractions of segments of guinea pig ileum.
Male albino guinea pigs weighing 200 to 500 grams were sacrificed by cervical dislocation.
The ileums were then quickly removed from the guinea pigs and placed in a modified Tyrode solution, a solution which is known to those of skill in the art, containing one-half of the usual amount of magnesium ions.
Segments of ileum about 2 cm long were then cut and mounted in a 10-mL tissue bath containing the modified Tyrode solution. The solution was maintained at 37° C. and aerated with a gaseous mixture of 95% oxygen and 5% carbon dioxide.
Submaximal contractions of the ileum segments were then generated by injecting prostaglandin E2 into the bath, and detected isotonically. Data for a control prostaglandin E2 dose response curve plotting concentration of prostaglandin E2 versus number of contractions generated was then obtained by experimentally adjusting the dose of the prostaglandin E2 being injected into the tissue bath, in a manner known by those of skill in the art.
Solutions or suspensions containing an initial amount of a test compound in modified Tyrode solution ("test solutions/suspensions") were then separately substituted for the tissue bath. Each test solution/suspension was then kept in constant contact with the ileum tissue, except for brief periods to drain the bath in preparation for rinsing with fresh test solution/suspension. Different doses of prostaglandin E2 were again injected into the test solutions/suspensions.
A second prostaglandin E2 dose response curve was then generated for PGE2 in the presence of a test compound.
A dose ratio of EC50 doses (that dose of a compound or drug which is necessary to elicit a 50% maximal biological response and, thus, which is necessary to elicit a 50% reduction in the contractions of the guinea pig ileum segments in this assay) was then calculated from the results of each test in a manner known by those of skill in the art. […] Duplicate tests were conducted on each concentration of test compound.
If the initial concentration of a test compound was determined to be "active," then varying concentrations of the test compound were then assayed. As is shown in Table I below, all test compounds analyzed in this assay were determined to be "active" as prostaglandin E2 antagonists at the initial concentration.
The pA2 value (a statistical constant which is a common measure of expressing the potency of a particular drug as a competitive antagonist) was then calculated for each test compound by schild plot calculations, as described by H. O. Schild, "pA, A New Scale for the Measurement of Drug Antagonism," Br. J. Pharmacol, 2, 189 (1947), according to the following mathematical formula: […]
to quantitate the effectiveness of the test compounds as prostaglandin E2 antagonists.
The compounds of the present invention which were tested in this assay, and for which results are presented in Table I, correspond to the particular examples specified in Table I.

[2] = test system: isolated smooth muscle preparations; details: cited from earlier work
[3] = test system: micturition of urethane-anesthetized rats; details: cited from earlier work
[4] = po, mouse, intragastric, read-out: PBQ writhing assay ED50, I.G.
[5] = Mus musculus, po, read-out: PBQ writhing assay ED50, I.G.

Kb [1] [nM]	PGE antagonism in guinea pig ileum, activity [1]	Structure (SMILES)	rank order of potency in the Writhing Assay (mice)	further results
–	–	O=C(CP(=O)(O)O)NNC(=O)N1Cc2ccccc2Oc2ccc(Cl)cc21 [Example 28, 8-chlorodibenz[b,f][1,4]oxazepine-10(11H)-carboxylic acid, 2-(phosphonoacetyl)hydrazide]	Example 20>Example 27>Example 12>Example 11>Example 28	ED50 (mice; [4]): 11.2 mg/kg
100	Active	O=C(CCNC(=O)Nc1ccc(C(F)(F)F)cc1)NNC(=O)N1Cc2ccccc2Oc2ccc(Cl)cc21 [Example 10, 8-chlorodibenz[b,f][1,4]oxazepine-10(11H)-carboxylic acid, 2-[1-oxo-3-[[[[(4-trifluoromethyl)phenyl]amino]carbonyl]amino]propyl]hydrazide]	–	–
79.4	Active	O=C(Cc1cccs1)NCCC(=O)NNC(=O)N1Cc2ccccc2Oc2ccc(Cl)cc21 [Example 5, 8-chlorodibenz[b,f][1,4]oxazepine-10(11H)-carboxylic acid, 2-[1-oxo-3-[(2-thienylacetyl)amino]propyl]hydrazide]	–	effectiveness as prostaglandin E2 antagonist relative to prostaglandin antagonists reported in the literature ([1]; compared with literature prostaglandin E2 antagonists): more than three to four times more effective
–	–	CCOP(=O)(O)CC(=O)NNC(=O)N1Cc2ccccc2Oc2ccc(Cl)cc21 [Example 27, 8-chlorodibenz[b,f][1,4]oxazepine-10(11H)-carboxylic acid, 2-[(ethoxyhydroxyphosphinyl)acetyl]hydrazide]	Example 20>Example 27>Example 12>Example 11>Example 28	ED50 (mice; [5]): 8.3 mg/kg
2510	Active	CC(C)(C)OC(=O)NCCC(=O)NNC(=O)N1Cc2ccccc2Oc2ccc(Cl)cc21 [Example 7, 8-chlorodibenz[b,f][1,4]oxazepine-10(11H)-carboxylic acid, 2-[3-[[(1,1-dimethylethoxy)carbonyl]amino]-1-oxopropyl]hydrazide]	–	–
2000	Active	O=C(CCNS(=O)(=O)c1ccccc1)NNC(=O)N1Cc2ccccc2Oc2ccc(Cl)cc21 [Example 24, 8-chlorodibenz[b,f][1,4]oxazepine-10(11H)-carboxylic acid, 2-[1-oxo-3-[(phenylsulfonyl)amino]propyl]hydrazide]	–	–
–	–	CC(=O)NNC(=O)N1Cc2ccccc2Oc2ccc(Cl)cc21 [SC-19220]	–	inhibition of stimulant actions of prostaglandins [2]: inhibit the stimulant actions of prostaglandins on isolated smooth muscle preparations; bladder capacity [3]: increased the bladder capacity; voiding efficiency of micturition [3]: reduced the voiding efficiency of micturition
794	Active	CS(=O)(=O)NCCC(=O)NNC(=O)N1Cc2ccccc2Oc2ccc(Cl)cc21 [Example 11, 8-chlorodibenz[b,f][1,4]oxazepine-10(11H)-carboxylic acid, 2-[3-[(methylsulfonyl)amino]-1-oxopropyl]hydrazide]	Example 20>Example 27>Example 12>Example 11>Example 28	ED50 (mice; [4]): 9.7 mg/kg; ED50 (mice; sc, mouse, subcutaneous, read-out: PBQ writhing assay ED50, S.C.): 3 mg/kg
–	–	O=C(Cc1ccccc1)NNC(=O)N1Cc2ccccc2Oc2ccc(Cl)cc21 [SC-18637]	–	inhibition of stimulant actions of prostaglandins [2]: inhibit the stimulant actions of prostaglandins on isolated smooth muscle preparations
–	–	CNC(=O)NCCC(=O)NNC(=O)N1Cc2ccccc2Oc2ccc(Cl)cc21 [Example 12, 8-chlorodibenz[b,f][1,4]oxazepine-10(11H)-carboxylic acid, 2-[3-[[(methylamino)carbonyl]amino]-1-oxopropyl]hydrazide]	Example 20>Example 27>Example 12>Example 11>Example 28	ED50 (mice; [4]): 8.4 mg/kg

Structure (SMILES)	Kb [1] [nM]	PGE antagonism in guinea pig ileum, activity [1]	rank order of potency in the Writhing Assay (mice)	further results
CCOP(=O)(CC(=O)NNC(=O)N1Cc2ccccc2Oc2ccc(Cl)cc21)OCC [Example 20, 8-chlorodibenz[b,f][1,4]oxazepine-10(11H)-carboxylic acid, 2-[(diethoxyphosphinyl)acetyl]hydrazide]	794	Active	Example 20>Example 27>Example 12>Example 11>Example 28; also recorded: the most potent compound of the invention tested	ED50 (mice; [5]): 8.2 mg/kg; ED50 (mice; Mus musculus, sc, read-out: PBQ writhing assay ED50, S.C.): 7.1 mg/kg

From US5393747A, “Substituted dibenzoxazepine compounds for the treatment of convulsions, ischemia and other diseases responsive to prostaglandin-E2 antagonists” (G. D. Searle & Co., priority 1993, dated 1995)
